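Abbreviation: GI50, concentration required for 50% inhibition of growth. The concentration for full growth arrest is given as TGI.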
Legend:
Assay in all cases: DTP human tumour cell line panel, 384-well format
786-0 renal = system: 786-0 renal
A498 renal = system: A498 renal
A549 NSCLC = system: A549 NSCLC
ACHN renal = system: ACHN renal
BT-549 breast = system: BT-549 breast
CCRF-CEM leukemia = system: CCRF-CEM leukemia
COLO 205 colon = system: COLO 205 colon
DU-145 prostate = system: DU-145 prostate
EKVX NSCLC = system: EKVX NSCLC
HCC-2998 colon = system: HCC-2998 colon
HCT-116 colon = system: HCT-116 colon
HCT-15 colon = system: HCT-15 colon
HL-60(TB) leukemia = system: HL-60(TB) leukemia
HOP-62 NSCLC = system: HOP-62 NSCLC
HOP-92 NSCLC = system: HOP-92 NSCLC
HS 578T breast = system: HS 578T breast
HT29 colon = system: HT29 colon
IGROV1 ovarian = system: IGROV1 ovarian
K-562 leukemia = system: K-562 leukemia
KM12 colon = system: KM12 colon
LOX IMVI melanoma = system: LOX IMVI melanoma
M14 melanoma = system: M14 melanoma
MALME-3M melanoma = system: MALME-3M melanoma
MCF7 breast = system: MCF7 breast
MDA-MB-231 breast = system: MDA-MB-231 breast
MDA-MB-468 breast = system: MDA-MB-468 breast
MOLT-4 leukemia = system: MOLT-4 leukemia
NCI-H226 lung = system: NCI-H226 lung
NCI-H23 lung = system: NCI-H23 lung
NCI-H322M lung = system: NCI-H322M lung
NCI-H460 NSCLC = system: NCI-H460 NSCLC
NCI-H522 lung = system: NCI-H522 lung
NCI/ADR-RES ovarian = system: NCI/ADR-RES ovarian
OVCAR-3 ovarian = system: OVCAR-3 ovarian
OVCAR-4 ovarian = system: OVCAR-4 ovarian
OVCAR-5 ovarian = system: OVCAR-5 ovarian
OVCAR-8 ovarian = system: OVCAR-8 ovarian
PC-3 prostate = system: PC-3 prostate
RPMI-8226 leukemia = system: RPMI-8226 leukemia
RXF 393 renal = system: RXF 393 renal
SF-268 CNS = system: SF-268 CNS
SF-295 CNS = system: SF-295 CNS
SF-539 CNS = system: SF-539 CNS
SK-MEL-28 melanoma = system: SK-MEL-28 melanoma
SK-MEL-5 melanoma = system: SK-MEL-5 melanoma
SN12C renal = system: SN12C renal
SNB-19 CNS = system: SNB-19 CNS
SNB-75 CNS = system: SNB-75 CNS
SR leukemia = system: SR leukemia
SW-620 colon = system: SW-620 colon
T-47D breast = system: T-47D breast
TK-10 renal = system: TK-10 renal
U251 glioblastoma = system: U251 glioblastoma
UO-31 renal = system: UO-31 renal

CC(C)(C)c1nc(-c2cccc(NS(=O)(=O)c3c(F)cccc3F)c2F)c(-c2ccnc(N)n2)s1
GI50 ([…]-0 renal): 43.8 µM
TGI (786-0 renal): > 100 µM
GI50 (A498 renal): 60 µM
TGI (A498 renal): > 94.6 µM
GI50 (A549 NSCLC): 20.2 µM
TGI (A549 NSCLC): 72.5 µM
GI50 (ACHN renal): 183 nM
TGI (ACHN renal): > 100 µM
GI50 (BT-549 breast): 42.7 µM
TGI (BT-549 breast): 70.1 µM
GI50 (CCRF-CEM leukemia): 14.4 µM
TGI (CCRF-CEM leukemia): > 44.1 µM
GI50 (COLO 205 colon): < 10 nM
GI50 (DU-145 prostate): 14.9 µM
TGI (DU-145 prostate): 41.6 µM
GI50 (EKVX NSCLC): 26.6 µM
TGI (EKVX NSCLC): 59.6 µM
GI50 (HCC-2998 colon): 34.8 µM
TGI (HCC-2998 colon): > 74.7 µM
GI50 (HCT-116 colon): 11.7 µM
TGI (HCT-116 colon): > 66.4 µM
GI50 (HCT-15 colon): 26 µM
TGI (HCT-15 colon): > 74.4 µM
GI50 (HL-60(TB) leukemia): 3.98 µM
TGI (HL-60(TB) leukemia): 27.3 µM
GI50 (HOP-62 NSCLC): 55.5 µM
TGI (HOP-62 NSCLC): > 100 µM
GI50 (HOP-92 NSCLC): 50 µM
TGI (HOP-92 NSCLC): > 94 µM
GI50 (HS 578T breast): 33 µM
TGI (HS 578T breast): > 75.9 µM
GI50 (HT29 colon): 12.4 nM
TGI (HT29 colon): > 58.4 µM
GI50 (IGROV1 ovarian): 7.65 µM
TGI (IGROV1 ovarian): > 52.6 µM
GI50 (K-562 leukemia): 4.59 µM
TGI (K-562 leukemia): 20.7 µM
GI50 (KM12 colon): 27.7 µM
TGI (KM12 colon): > 70.9 µM
GI50 (LOX IMVI melanoma): 1280 nM
TGI (LOX IMVI melanoma): > 63.8 µM
GI50 (M14 melanoma): < 10 nM
TGI (M14 melanoma): < 17 nM
GI50 (MALME-3M melanoma): < 10 nM
GI50 (MCF7 breast): 25.3 µM
TGI (MCF7 breast): 62.6 µM
GI50 (MDA-MB-231 breast): 15 µM
TGI (MDA-MB-231 breast): 37.4 µM
GI50 (MDA-MB-468 breast): 28.6 µM
TGI (MDA-MB-468 breast): 57.7 µM
GI50 (MOLT-4 leukemia): 6.59 µM
TGI (MOLT-4 leukemia): 24.3 µM
GI50 (NCI-H226 lung): 22.1 µM
TGI (NCI-H226 lung): 67 µM
GI50 (NCI-H23 lung): 13.7 µM
TGI (NCI-H23 lung): 52.3 µM
GI50 (NCI-H322M lung): 23 µM
TGI (NCI-H322M lung): 69.8 µM
GI50 (NCI-H460 NSCLC): 29.3 µM
TGI (NCI-H460 NSCLC): > 75.7 µM
GI50 (NCI-H522 lung): 7.22 µM
TGI (NCI-H522 lung): 41 µM
GI50 (NCI/ADR-RES ovarian): 22.6 µM
TGI (NCI/ADR-RES ovarian): 53.8 µM
GI50 (OVCAR-3 ovarian): 34.1 µM
TGI (OVCAR-3 ovarian): 60.8 µM
GI50 (OVCAR-4 ovarian): 24.9 µM
TGI (OVCAR-4 ovarian): 52 µM
GI50 (OVCAR-5 ovarian): 23.8 µM
TGI (OVCAR-5 ovarian): > 85.2 µM
GI50 (OVCAR-8 ovarian): 44.3 µM
TGI (OVCAR-8 ovarian): 89 µM
GI50 (PC-3 prostate): 48.9 µM
TGI (PC-3 prostate): > 93.6 µM
GI50 (RPMI-8226 leukemia): 5.83 µM
TGI (RPMI-8226 leukemia): 19.7 µM
GI50 (RXF 393 renal): 50.5 µM
TGI (RXF 393 renal): > 81.6 µM
GI50 (SF-268 CNS): 42.3 µM
TGI (SF-268 CNS): > 84.5 µM
GI50 (SF-295 CNS): 48.1 µM
TGI (SF-295 CNS): > 100 µM
GI50 (SF-539 CNS): 49.7 µM
TGI (SF-539 CNS): > 94.2 µM
GI50 (SK-MEL-28 melanoma): < 10 nM
GI50 (SK-MEL-5 melanoma): < 10 nM
TGI (SK-MEL-5 melanoma): > 100 µM
GI50 (SN12C renal): 38.4 µM
TGI (SN12C renal): > 100 µM
GI50 (SNB-19 CNS): 48.7 µM
TGI (SNB-19 CNS): > 100 µM
GI50 (SNB-75 CNS): > 62.8 µM
TGI (SNB-75 CNS): > 81.3 µM
GI50 (SR leukemia): 6.62 µM
TGI (SR leukemia): 23.8 µM
GI50 (SW-620 colon): 32.4 µM
TGI (SW-620 colon): > 77.4 µM
GI50 (T-47D breast): 41.5 µM
TGI (T-47D breast): > 100 µM
GI50 (TK-10 renal): 11.7 µM
TGI (TK-10 renal): > 60.7 µM
GI50 (U251 glioblastoma): 53.8 µM
TGI (U251 glioblastoma): > 100 µM
GI50 (UO-31 renal): 16.6 µM
TGI (UO-31 renal): > 100 µM

From PubChem BioAssay (NCI)
